One data set concerns the target Acetylcholinesterase (Homo sapiens, UniProt P22303). Put plainly: Inhibition of human recombinant AChE using ATCh as substrate preincubated for 20 mins followed by substrate addition and measured for 3 mins by Ellman method. (In Ellman's method for cholinesterases, released thiocholine reacts with DTNB.)
Another data set has as its target Cholinesterase (Homo sapiens, UniProt P06276). Put plainly: Inhibition of human serum BChE using BTCh as substrate preincubated for 20 mins followed by substrate addition and measured for 3 mins by Ellman's method.
Data set [1] addresses Cyclin-dependent kinase 5/CDK5 activator 1 (Homo sapiens, UniProt Q00535). The data set is classed as protein-complex assay.
Description: Inhibition of human recombinant CDK5/p25 using histone H1 as substrate in presence of [gamma-33P]ATP incubated for 30 mins by liquid scintillation counting assay
In the next data set the test system is Huh-7. The data set can be described thus: Cytotoxicity against human HuH7 cells assessed as growth inhibition incubated for 48 hrs by Hoechst 33342 staining based assay. Conditions: Huh-7, 48 h. The data set is classed as cell-based.
The test system of another data set is Caco-2. The data set can be described thus: Cytotoxicity against human Caco2 cells assessed as growth inhibition incubated for 48 hrs by Hoechst 33342 staining based assay. The settings on record: Caco-2, 48 h. The data set is classed as cell-based.
The next data set concerns MDA-MB-231. The data set can be described thus: Cytotoxicity against human MDA-MB-231 cells assessed as growth inhibition incubated for 48 hrs by Hoechst 33342 staining based assay. Conditions: MDA-MB-231, 48 h. The data set is classed as cell-based.
In another data set the test system is HCT-116. Put plainly: Cytotoxicity against human HCT116 cells assessed as growth inhibition incubated for 48 hrs by Hoechst 33342 staining based assay. The data set is classed as cell-based. Conditions: HCT-116, 48 h.
The test system of a further data set is PC-3. The data set can be described thus: Cytotoxicity against human PC3 cells assessed as growth inhibition incubated for 48 hrs by Hoechst 33342 staining based assay. The class given is cell-based. Conditions: PC-3, 48 h.
The test system of a further data set is NCI-H727. Put plainly: Cytotoxicity against human NCI-H727 cells assessed as growth inhibition incubated for 48 hrs by Hoechst 33342 staining based assay. The data set is classed as cell-based. Conditions: NCI-H727, 48 h.
Data set [2] has as its target Glycogen synthase kinase-3 (Sus scrofa, UniProt B2LUN4+I6LNT8).
Description: Inhibition of native porcine brain GSK-3alpha/beta using GS-1 as substrate incubated for 30 mins in presence of [gamma-33P]ATP by liquid scintillation counting assay
A further data set concerns HaCaT. Put plainly: Cytotoxicity against human HaCaT cells assessed as growth inhibition incubated for 48 hrs by Hoechst 33342 staining based assay. The data set is classed as cell-based.
Data set [3] is described as follows: Cytotoxicity against human SH-SY5Y cells assessed as reduction in cell viability at 100 uM incubated for 24 hrs by MTT assay relative to untreated cells. The class given is cell-based. Conditions: read-out: INH.
The next data set deals with SH-SY5Y. Put plainly: Cytotoxicity against human SH-SY5Y cells assessed as reduction in cell viability incubated for 72 hrs by MTT assay. The class given is cell-based. For orientation: Formazan colour is commonly taken as a measure of viable cells.
The next data set has as its system MDCK-MDR1. The data set can be described thus: Cytotoxicity against MDCK2-MDR1 cells assessed as reduction in cell viability at 75 uM incubated for 2 hrs by MTT assay. The data set is classed as ADME, cell-based, Canis lupus familiaris. The settings on record: dog, mdck-mdr1, 2 h.
In data set [4] the test system is MDR1. Put plainly: in vitro. Conditions: dog, MDCK-MDR1.
Description: Apparent permeability across apical to basolateral side in MDCK2-MDR1 cells by HPLC analysis
Data set [5] concerns MDR1. Put plainly: in vitro. Conditions: dog, MDCK-MDR1. The source holds these as a separate data set.
Description: Apparent permeability across basolateral to apical side in MDCK2-MDR1 cells by HPLC analysis
The test system of data set [6] is MDR1. The data set can be described thus: in vitro. The settings on record: dog, MDCK-MDR1. This is another data set of the same source.
Description: Efflux ratio of apparent permeability from basolateral to apical over apical to basolateral side in MDCK2-MDR1 cells by HPLC analysis

Consider 20 compounds from ChEMBL document CHEMBL4390652, “Design, biological evaluation and X-ray crystallography of nanomolar multifunctional ligands targeting simultaneously acetylcholinesterase and glycogen synthase kinase-3” (Eur J Med Chem, 2019).

Broadly, the IC50 is the midpoint of a concentration-inhibition curve. As usually defined, the Papp A→B is how fast a substance crosses the layer from the apical side. A word on the Papp B→A: it is how fast a substance crosses the layer from the basolateral side. In general, efflux ratio refers to the permeability from basolateral to apical divided by that in the opposite direction, in the common usage.

Sequence of Cholinesterase (P06276 whole entry): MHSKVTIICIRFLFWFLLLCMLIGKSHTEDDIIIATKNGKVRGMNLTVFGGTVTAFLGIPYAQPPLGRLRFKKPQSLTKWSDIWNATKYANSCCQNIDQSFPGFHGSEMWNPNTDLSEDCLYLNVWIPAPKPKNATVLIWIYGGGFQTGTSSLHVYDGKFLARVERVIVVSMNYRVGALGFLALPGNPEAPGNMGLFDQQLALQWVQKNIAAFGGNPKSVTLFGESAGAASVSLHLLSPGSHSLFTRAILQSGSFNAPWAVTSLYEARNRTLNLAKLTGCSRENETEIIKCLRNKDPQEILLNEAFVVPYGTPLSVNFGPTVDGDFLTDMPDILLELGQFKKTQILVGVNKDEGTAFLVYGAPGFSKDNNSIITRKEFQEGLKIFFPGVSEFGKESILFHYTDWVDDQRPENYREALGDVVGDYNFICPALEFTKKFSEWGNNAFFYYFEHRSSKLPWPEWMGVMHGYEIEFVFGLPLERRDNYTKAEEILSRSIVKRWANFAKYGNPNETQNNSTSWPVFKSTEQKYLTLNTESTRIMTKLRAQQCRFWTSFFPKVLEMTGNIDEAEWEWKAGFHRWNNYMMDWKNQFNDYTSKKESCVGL
Sequence of Cyclin-dependent kinase 5/CDK5 activator 1 (Q00535 whole entry): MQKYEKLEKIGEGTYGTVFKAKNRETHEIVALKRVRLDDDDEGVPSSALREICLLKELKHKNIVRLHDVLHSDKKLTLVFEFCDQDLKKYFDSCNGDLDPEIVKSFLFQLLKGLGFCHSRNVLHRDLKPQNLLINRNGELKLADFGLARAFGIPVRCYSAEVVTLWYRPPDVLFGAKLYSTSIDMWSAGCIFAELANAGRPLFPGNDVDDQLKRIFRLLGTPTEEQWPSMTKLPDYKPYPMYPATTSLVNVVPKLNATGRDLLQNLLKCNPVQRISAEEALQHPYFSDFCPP
Sequence of Cyclin-dependent kinase 5/CDK5 activator 1 (Q15078 whole entry, further chain): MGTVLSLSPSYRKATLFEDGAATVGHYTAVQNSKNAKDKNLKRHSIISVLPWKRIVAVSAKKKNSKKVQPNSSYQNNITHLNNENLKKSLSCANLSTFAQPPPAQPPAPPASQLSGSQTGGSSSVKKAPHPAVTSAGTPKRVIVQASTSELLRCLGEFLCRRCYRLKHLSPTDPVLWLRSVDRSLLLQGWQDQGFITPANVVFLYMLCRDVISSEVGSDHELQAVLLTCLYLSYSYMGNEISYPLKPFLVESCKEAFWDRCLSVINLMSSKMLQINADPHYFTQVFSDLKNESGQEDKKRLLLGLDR
Sequence of Acetylcholinesterase (P22303 whole entry): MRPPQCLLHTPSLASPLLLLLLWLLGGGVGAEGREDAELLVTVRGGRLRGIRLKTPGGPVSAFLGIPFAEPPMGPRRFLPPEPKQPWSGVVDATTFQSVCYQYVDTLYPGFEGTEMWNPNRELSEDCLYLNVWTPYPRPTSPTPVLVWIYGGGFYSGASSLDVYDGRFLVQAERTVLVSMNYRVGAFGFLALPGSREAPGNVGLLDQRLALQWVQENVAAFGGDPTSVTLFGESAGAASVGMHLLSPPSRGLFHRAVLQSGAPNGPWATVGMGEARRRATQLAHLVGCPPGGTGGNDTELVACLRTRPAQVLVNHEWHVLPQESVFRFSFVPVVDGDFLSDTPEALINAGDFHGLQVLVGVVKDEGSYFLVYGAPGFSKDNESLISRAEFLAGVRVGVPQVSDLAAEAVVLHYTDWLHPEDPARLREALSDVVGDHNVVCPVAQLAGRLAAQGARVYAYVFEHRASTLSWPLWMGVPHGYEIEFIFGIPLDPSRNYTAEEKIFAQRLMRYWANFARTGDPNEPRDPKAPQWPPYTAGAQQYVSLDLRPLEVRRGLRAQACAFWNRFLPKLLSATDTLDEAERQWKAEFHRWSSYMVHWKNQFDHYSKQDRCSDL

Consider `O=C(Nc1cc(-c2cn(CCNc3c4c(nc5ccccc35)CCCC4)nn2)ccn1)Nc1cccc2c1[C@H]1CCCCN1C2=O`, for which the IC50 stood at 9.5 nM at Acetylcholinesterase; 395 nM at Cholinesterase; 500 nM in [1]; 3.5 µM in the data set on Huh-7; 8 µM in the data set on Caco-2; 2 µM in the data set with MDA-MB-231. Moreover, the IC50 in the data set on HCT-116 worked out at 2200 nM; with PC-3, 3 µM; in the data set on NCI-H727, 5 µM; in data set [2], 7 nM.

Regarding `C#Cc1ccc(NC(=O)Nc2cccc3c2C2CCCCN2C3=O)nc1` (racemic), the concentration for half-maximal inhibition (IC50) in [1] and in data set [2] was above 10000 nM in each case.

For `C#Cc1cccc(NC(=O)Nc2cccc3c2C2CCCCN2C3=O)n1` (racemic), the 50% inhibitory concentration (IC50) in [1] came out at 80 nM; in data set [2], 300 nM.

Take `Cn1cc(COCc2ccnc(NC(=O)Nc3cccc4c3C3CCCCN3C4=O)c2)nn1` (racemic): the half-maximal inhibitory concentration (IC50) in data set [1] was 250 nM; in [2], 25 nM.

On to `C#CCOCc1ccnc(NC(=O)Nc2cccc3c2C2CCCCN2C3=O)c1` (racemic), for which the figures for the IC50 in data set [1] and in data set [2] were 150 nM and 60 nM, respectively.

With `O=C(Nc1cc(-c2cn(CCNc3c4c(nc5ccccc35)CCCC4)nn2)ccn1)Nc1cccc2c1[C@@H]1CCCCN1C2=O`, the half-inhibitory concentration (IC50) at Acetylcholinesterase came out at 13.7 nM; on Cholinesterase it was 254 nM; in [1] it was 1100 nM; with Huh-7, 2.6 µM; in the data set on Caco-2, 10 µM; in the data set with MDA-MB-231, 4 µM. Moreover, the concentration for half-maximal inhibition (IC50) amounted to 2700 nM with HCT-116, 6 µM in the data set on PC-3, 7 µM in the data set on NCI-H727 and 19 nM in data set [2].

Take `O=C(Nc1cc(COCc2cn(CCNc3c4c(nc5ccccc35)CCCC4)nn2)ccn1)Nc1cccc2c1C1CCCCN1C2=O` (racemic): the IC50 on Acetylcholinesterase turned out to be 20.8 nM; at Cholinesterase it was 169 nM; in [1] it was 300 nM; in the data set on Huh-7 it was 4 µM; in the data set on Caco-2, 20 µM; in the data set with MDA-MB-231 it was 4 µM. Moreover, the IC50 with HCT-116 worked out at 4000 nM; with PC-3, 7 µM; with NCI-H727 it was 9 µM; in the data set with HaCaT, 4000 nM; in the data set on SH-SY5Y, 22 µM; in data set [2], 10 nM. Also, the cytotoxicity at 24 h, 100 µM in data set [3] worked out at 50%. For the same compound, the Activity entry in the data set on MDCK-MDR1 was “Non-Toxic”. Moreover, the apparent permeability from apical to basolateral (Papp A→B) in the data set with MDR1 [4] was found to be 13.5 ×10⁻⁶ cm/s. The compound further showed a basolateral-to-apical permeability (Papp B→A) with MDR1 [5] of 20.8 ×10⁻⁶ cm/s. Moreover, the efflux ratio with MDR1 [6] worked out at 1.54.

Regarding `O=C(Nc1cc(COCc2cn(CCNc3ccnc4ccccc34)nn2)ccn1)Nc1cccc2c1C1CCCCN1C2=O` (racemic), the results for the half-maximal inhibitory concentration (IC50) in data set [1] and in data set [2] were 240 nM and above 10000 nM, respectively.

In the case of `C#Cc1ccnc(NC(=O)Nc2cccc3c2C2CCCCN2C3=O)c1` (racemic), the 50% inhibitory concentration (IC50) in data set [1] stood at 68 nM; in data set [2] it was 41 nM.

On to `O=C(Nc1cc(COCc2cn(CCCc3ccccc3)nn2)ccn1)Nc1cccc2c1C1CCCCN1C2=O` (racemic), for which the results for the concentration for half-maximal inhibition (IC50) in data set [1] and in data set [2] were 260 nM and 8 nM, respectively.

With `C#Cc1ccnc(NC(=O)Nc2cccc3c2[C@@H]2CCCCN2C3=O)c1`, the IC50 was determined as 50 nM in data set [1] and 90 nM in data set [2].

Consider `C#CCCc1ccnc(NC(=O)Nc2cccc3c2C2CCCCN2C3=O)c1` (racemic), for which the IC50 came out at 70 nM in data set [1] and 15 nM in data set [2].

On to `O=C(Nc1cc(CCc2cn(CCNc3c4c(nc5ccccc35)CCCC4)nn2)ccn1)Nc1cccc2c1C1CCCCN1C2=O` (racemic), for which the IC50 on Acetylcholinesterase was 23.6 nM; on Cholinesterase it was 65.7 nM; in data set [1] it was 800 nM; in the data set on Huh-7, 2.9 µM; in the data set with Caco-2 it was 4.8 µM; with MDA-MB-231, 2 µM. In addition, the IC50 with HCT-116 came out at 1100 nM; in the data set on PC-3, 1.6 µM; with NCI-H727 it was 6.3 µM; with HaCaT, 1900 nM; in data set [2], 21 nM.

As for `C#CCN(C)Cc1ccnc(NC(=O)Nc2cccc3c2C2CCCCN2C3=O)c1` (racemic), the 50% inhibitory concentration (IC50) is 90 nM in data set [1] and 11 nM in data set [2].

Consider `CN(Cc1ccnc(NC(=O)Nc2cccc3c2C2CCCCN2C3=O)c1)Cc1cn(CCNc2c3c(nc4ccccc24)CCCC3)nn1` (racemic), for which the IC50 stood at 58.6 nM at Acetylcholinesterase; 206 nM against Cholinesterase; 310 nM in [1]; 2 µM in the data set on Huh-7; 9 µM with Caco-2; 2 µM in the data set with MDA-MB-231. In addition, the IC50 was 2000 nM in the data set on HCT-116; 3 µM in the data set with PC-3; 4 µM in the data set on NCI-H727; 2000 nM in the data set with HaCaT; 25 µM in the data set on SH-SY5Y; 10 nM in [2]. Further, the cytotoxicity at 24 h, 100 µM in [3] came out at 50%. Further, the Activity result in the data set with MDCK-MDR1 is recorded as “Non-Toxic”. The same compound gave a Papp A→B in the data set with MDR1 [4] of 10.1 ×10⁻⁶ cm/s. The same compound showed an apparent permeability from basolateral to apical (Papp B→A) in the data set with MDR1 [5] of 8.4 ×10⁻⁶ cm/s. In the data set with MDR1 [6], the efflux ratio is 0.83.

As for `c1ccc2c(NCCn3ccnn3)c3c(nc2c1)CCCC3`, the 50% inhibitory concentration (IC50) in data set [1] and in [2] was above 10000 nM throughout.

As for `O=C(Nc1cccc(-c2cn(CCNc3c4c(nc5ccccc35)CCCC4)nn2)n1)Nc1cccc2c1C1CCCCN1C2=O` (racemic), the IC50 stood at 133 nM at Acetylcholinesterase; 21.1 nM against Cholinesterase; 3100 nM in [1]; 18 µM with Huh-7; 24 µM in the data set with Caco-2; 17 µM in the data set with MDA-MB-231. Further, the 50% inhibitory concentration (IC50) in the data set on HCT-116 was 17000 nM; with PC-3 it was 27 µM; with NCI-H727 it was above 25 µM; in data set [2] it was 4200 nM.

Consider `O=C(Nc1cc(COCc2cn(CCNc3ccncc3)nn2)ccn1)Nc1cccc2c1C1CCCCN1C2=O` (racemic), for which the results for the half-maximal inhibitory concentration (IC50) in data set [1] and in [2] were 200 nM and 30 nM, respectively.

As to `O=C(Nc1ccc(-c2cn(CCNc3c4c(nc5ccccc35)CCCC4)nn2)cn1)Nc1cccc2c1C1CCCCN1C2=O` (racemic), the half-maximal inhibitory concentration (IC50) at Acetylcholinesterase was 0.8 nM; against Cholinesterase it was 185 nM; in data set [1], above 10000 nM; in the data set with Huh-7, above 25 µM; in the data set on Caco-2, above 25 µM; with MDA-MB-231 it was above 25 µM. For the same compound, the IC50 in the data set on HCT-116 was above 25000 nM; in the data set with PC-3, above 25 µM; with NCI-H727, above 25 µM; in data set [2] it was above 10000 nM.

With `C#Cc1ccnc(NC(=O)Nc2cccc3c2[C@H]2CCCCN2C3=O)c1`, the IC50 turned out to be 18 nM in data set [1] and 33 nM in [2].
